Structures can show the parent of a compound that is named as a salt.
How the values were obtained:
5-HT1A = biological target: T1, 5-HT1A (Homo sapiens, UniProt P08908); test: 5-HT1A receptor binding, [3H]DPAT; settings: radioligand [3H]DPAT
T1 sequence (P08908 1-422): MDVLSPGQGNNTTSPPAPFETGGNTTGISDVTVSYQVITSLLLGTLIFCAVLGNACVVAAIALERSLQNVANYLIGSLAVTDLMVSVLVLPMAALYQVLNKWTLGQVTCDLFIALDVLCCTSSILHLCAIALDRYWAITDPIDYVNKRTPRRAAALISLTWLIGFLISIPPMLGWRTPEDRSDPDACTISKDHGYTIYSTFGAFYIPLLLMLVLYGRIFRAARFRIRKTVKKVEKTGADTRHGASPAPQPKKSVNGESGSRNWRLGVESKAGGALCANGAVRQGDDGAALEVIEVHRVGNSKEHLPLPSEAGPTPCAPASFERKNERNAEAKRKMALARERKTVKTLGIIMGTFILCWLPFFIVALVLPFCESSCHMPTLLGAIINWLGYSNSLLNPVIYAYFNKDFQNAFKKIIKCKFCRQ

| melting point | Compound | also measured |
| --- | --- | --- |
| 215 °C (dec.) | Fc1ccc2[nH]cc(CC3CCN(CCOc4cccc5[nH]ccc45)CC3)c2c1 (as salt: hydrochloride) (hydrate or solvate) [Example 1, 5-Fluoro-3-{1-[2-(1H-indol-4-yloxy)ethyl]-piperidin-4-ylmethyl}-1H-indole] | – |
| 130 to 132 °C | CC(CN1CCC(Cc2c[nH]c3ccc(F)cc23)CC1)Oc1cccc2[nH]ccc12 (stereo not shown) (as salt: hydrochloride) [Example 2, 5-Fluoro-3-[[1-[2-(1H-indol-4-yloxy)propyl]-4-piperidinyl]methyl]-1H-indole] | – |
| – | Fc1ccc2[nH]cc(CC3CCN(CCOc4cccc5[nH]ccc45)CC3)c2c1 [Example 1, 5-Fluoro-3-{1-[2-(1H-indol-4-yloxy)ethyl]-piperidin-4-ylmethyl}-1H-indole] | Ki (5-HT1A): 47 nM |
| – | CC(CN1CCC(Cc2c[nH]c3ccc(F)cc23)CC1)Oc1cccc2[nH]ccc12 (stereo not shown) [Example 2, 5-Fluoro-3-[[1-[2-(1H-indol-4-yloxy)propyl]-4-piperidinyl]methyl]-1H-indole] | 5-HT1A [3H]DPAT, percent at 100 nM (5-HT1A; @ 100 nM): 14% @ |
